Columns and labels:
[1] = system: O. sulcatus; experiment: Field experiment: attraction of weevils to odor dispensers in a strawberry field; assay type: in vivo, Otiorhynchus sulcatus; conditions: for number of weevils per replicate (O. sulcatus caught): total of whole season, back-transformed mean, 0.4 ml of each compound per dispenser, control 4.3
Description: A selection of single plant compounds (A=(Z)-2-pentenol and B=(E)-2-hexenol) and combinations of plant compounds (C=A+B in ratio 1:1, D=A+methyl eugenol in ratio 1:1, and E=A+B+methyl eugenol in ratio 1:1:1) were tested in a strawberry field (Fragaria×ananassa ‘Tillamook’) for attraction of O. sulcatus. Choice of compounds and mixtures were based on identification of EAD-active compounds from headspace of weevil-damaged E. fortunei ‘Dart's Blanket’ plants and paraffin oil extract of the same Euonymus plant species combined with bioassay results with the EAD-active compounds alone and in several mixtures (Van Tol, unpublished). The compound (Z)-2-pentenol (purity 95%) was obtained from Bedoukian (Danbury, Conn., USA), (E)-2-hexenol (purity >96%) from Acros (Geel, Belgium) and methyl eugenol (purity >98%) from Sigma-Aldrich (St. Louis, Mo., USA). All chemicals were used without further purification. Single compounds and mixtures were introduced in dispensers prior to use and sealed. In each dispenser 0.4 ml of each compound was present.
Plant volatile dispensers were made of 1.5 ml LDPE Pasteur pipettes (Labo Scientific, Ede, the Netherlands). The compounds to be tested were introduced into the pipette, the tip of which was then sealed by heat. Prior to use, the tip of the pipette was cut off at 1 cm above the reservoir portion. […] The dispenser is a simple and cheap existing design which enables a high release profile especially for larger quantities of plant volatiles. […]
(§1) Experiments were performed on a commercial strawberry field in Oregon (USA). […] Traps and dispensers were placed in the fields and monitored for weevils' presence between May and August 2009. […] Traps and plants surrounding each trap-dispenser combination were monitored for weevils weekly. […]

[2] = system: O. sulcatus antenna; experiment: GC-EAD antennal response to plant headspace volatiles; set-up: species or system Otiorhynchus sulcatus; conditions: headspace of E. fortunei 'Dart's Blanket' plants and paraffin oil extract; not quantified
Description: (§2) Volatiles were collected from a bio-active extract of Euonymus fortunei ‘Dart's Blanket’ in paraffin oil and from cuttings of mechanically damaged and O. sulcatus-damaged E. fortunei ‘Dart's Blanket’. The antennal response to these plant odours by O. sulcatus were measured by gas chromatography coupled with electroantennogram detection (GC-EAD). Compounds giving an electrophysiological response were tentatively identified by gas chromatography coupled with mass-spectrometry (GC-MS). […] A selection of plant volatiles that gave an electrophysiological reaction on the antenna were tested as single compounds and in several mixtures of two or more compounds on bioactivity using the olfactometer developed specifically to study vine weevil behaviour (see e.g., Van Tol et al., (2002) Physiological Entomology 27, 213-222). A small selection of compounds bioactive in the lab was tested under field conditions in strawberry.
A filtered 10-ml extract of E. fortunei ‘Dart's Blanket’ in paraffin oil (Merck, Uvasol) and four O. sulcatus-damaged and four mechanically damaged 20-cm long cuttings of field-grown E. fortunei ‘Dart's Blanket’ were used for headspace collection. The extract was prepared by crushing 30 g of fresh leaves from the top 15 cm part of stems with 50 ml of paraffin oil on ice. The extract was crushed for approximately 20 min followed by immediately filtering through Whatman No. 90 (diameter 15 cm) paper filter. The filtered Euonymus extract was stored cool until use. Cuttings of Euonymus were mechanically damaged with a scissor by four incisions per leaf three hours prior to headspace collection.
The O. sulcatus-damaged Euonymus cuttings were prepared by offering 10 vine weevils 16 hrs prior to headspace collecting the cuttings. Weevils were removed and cuttings washed with deionized water prior to placing in a fresh 100 ml flask with water for headspace collection. For three days the Euonymus cuttings or a daily refreshed 10-ml paraffin oil extract of Euonymus in an open Petri-dish were placed under a glass bell jar (5 l) in a growth chamber at 20° C. and under long day (L:D=16:8 hr) light conditions. Air was purified by passage through a charcoal filter and drawn at 0.2 l min^−1 through the jar. Volatiles were entrained for a total of 69 hrs. For the collecting of volatiles, Gerstel thermodesorption tubes, filled with 80 mg Tenax TA 20/35 mesh (Grace Alltech), were used. Before use, these tubes were cleaned by rinsing them with 10 ml hexane and, subsequently, flushing them for one hour at 280° C. with 20 ml min purified nitrogen. Each Tenax tube was refreshed after approximately 8 hrs. The volatiles trapped on the Tenax were washed off with 15 ml hexane. […]

[3] = system: O. sulcatus; experiment: Laboratory (olfactometer) and field tests of attraction; assay type: in vivo, Otiorhynchus sulcatus
Description: as §2
as §1, with “(USA). Five different treatments (A, B, C, D and E) and one control were tested in the field. The control consisted of an empty dispenser.” for “(USA).”

For `CCC/C=C/CO` [Treatment B, (E)-2-hexenol], the “number of weevils per replicate (O. sulcatus caught)” value [1] was 4.3 and the “antennal (EAD) response” value [2] was “EAD-active”.
For `C=C/C=C(\C)CCC=C(C)C` [DMNT], the “antennal (EAD) response” value [2] was “EAD-positive”.
For `CC/C=C\CCO` [(Z)-3-hexenol], the “antennal (EAD) response” value [2] was “EAD-active”.
In the case of `CC/C=C\CO` [Treatment A, (Z)-2-pentenol], the “attraction of O. sulcatus in strawberry (in words)” value [1] is reported as “attractive”, the “number of weevils per replicate (O. sulcatus caught)” value [1] is reported as 11.3 and the “attractive to O. sulcatus in laboratory and field tests (in words)” value [3] is reported as “attractive”. The “antennal (EAD) response” value [2] was “EAD-active”.
